Data as given in patent publication US6737383B1, “Herbicidal oxadiazolidines” (priority 1999, dated 2004).

Tests used:
blackgrass = assay: Test B pre/postemergence blackgrass; format: in vivo, Alopecurus myosuroides
Procedure, shortened: (§1)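 Test chemicals in a non-phytotoxic solvent mixture with surfactant were sprayed preemergence onto planted seeds and postemergence onto plants 2 to 18 cm tall (1- to 4-leaf stage). After twelve to sixteen days in a greenhouse, injury was visually rated against untreated controls from 0 (no effect) to 10 (complete control).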

surinam grass = assay: Test B pre/postemergence surinam grass; format: in vivo, Brachiaria decumbens
Procedure, shortened: as §1

pigweed = assay: Test B pre/postemergence pigweed; format: in vivo, Amaranthus retroflexus
Procedure, shortened: as §1

wild oat = assay: Test B pre/postemergence wild oat; format: in vivo, Avena fatua
Procedure, shortened: as §1

cocklebur = assay: Test B pre/postemergence cocklebur; format: in vivo, Xanthium strumarium
Procedure, shortened: as §1

purple nutsedge = assay: Test B pre/postemergence purple nutsedge; format: in vivo, Cyperus rotundus
Procedure, shortened: as §1

giant foxtail = assay: Test B pre/postemergence giant foxtail; format: in vivo, Setaria faberii
Procedure, shortened: as §1

crabgrass = assay: Test B pre/postemergence crabgrass; format: in vivo, Digitaria sanguinalis
Procedure, shortened: as §1

wheat = assay: Test B pre/postemergence wheat; format: in vivo, Triticum aestivum
Procedure, shortened: as §1

bedstraw = assay: Test B pre/postemergence bedstraw; format: in vivo, Galium aparine
Procedure, shortened: as §1

sugar beet = assay: Test B pre/postemergence sugar beet; format: in vivo, Beta vulgaris
Procedure, shortened: as §1

soybean = assay: Test B pre/postemergence soybean; format: in vivo, Glycine max
Procedure, shortened: as §1

rape = assay: Test B pre/postemergence rape; format: in vivo, Brassica napus
Procedure, shortened: as §1

velvetleaf = assay: Test B pre/postemergence velvetleaf; format: in vivo, Abutilon theophrasti
Procedure, shortened: as §1

morningglory = assay: Test B pre/postemergence morningglory; format: in vivo, Ipomoea hederacea
Procedure, shortened: as §1

corn = assay: Test B pre/postemergence corn; format: in vivo, Zea mays
Procedure, shortened: as §1

[1] = Postemergence, Rate 125 g/ha, scale of 0 to 10 where 0 is no effect and 10 is complete control
[2] = Preemergence, Rate 62 g/ha, scale of 0 to 10 where 0 is no effect and 10 is complete control
[3] = Preemergence, Rate 125 g/ha, 0 is no effect, 10 is complete control
[4] = Preemergence, Rate 250 g/ha, scale 0 to 10, 0 is no effect, 10 is complete control
[5] = Preemergence, Rate 500 g/ha, scale 0 to 10 (0 no effect, 10 complete control)
[6] = Rate 62 g/ha, Postemergence, scale of 0 to 10 where 0 is no effect and 10 is complete control
[7] = Rate 250 g/ha, Postemergence, scale 0 to 10, 0 is no effect, 10 is complete control
[8] = Rate 500 g/ha, Postemergence, scale 0 to 10

SMILES: CC(C)N(C(=O)n1oc(=O)n([C@H](C)c2ccccc2)c1=O)c1ccc(Cl)cc1 [Compound 178]
- Blackgrass plant response rating (blackgrass; [1]): 0
- Blackgrass plant response rating (blackgrass; [2]): 0
- Blackgrass plant response rating (0 to 10 scale) (blackgrass; [3]): 0
- Blackgrass plant response rating (blackgrass; [4]): 0
- Blackgrass plant response rating (blackgrass; [5]): 3
- Blackgrass plant response rating (blackgrass; [6]): 0
- Plant response rating, Blackgrass (blackgrass; [7]): 0
- B. signalgrass plant response rating (surinam grass; [1]): 0
- B. signalgrass plant response rating (surinam grass; [2]): 6
- B. signalgrass plant response rating (0 to 10 scale) (surinam grass; [3]): 7
- B. signalgrass plant response rating (surinam grass; [4]): 8
- B. signalgrass plant response rating (surinam grass; [5]): 9
- B. signalgrass plant response rating (surinam grass; [6]): 0
- Plant response rating, B. signalgrass (surinam grass; [7]): 0
- B. signalgrass plant response rating (surinam grass; Rate 500 g/ha, Postemergence, scale 0 to 10, 0 no effect, 10 complete control): 2
- Redroot pigweed plant response rating (pigweed; [1]): 7
- Redroot pigweed plant response rating (pigweed; [2]): 0
- Redroot pigweed plant response rating (0 to 10 scale) (pigweed; [3]): 0
- Redroot pigweed plant response rating (pigweed; [4]): 6
- Redroot pigweed plant response rating (pigweed; [5]): 10
- Redroot pigweed plant response rating (pigweed; [6]): 0
- Redroot pigweed plant response rating (pigweed; [8]): 7
- Wild oats plant response rating (wild oat; [2]): 0
- Wild oats plant response rating (0 to 10 scale) (wild oat; [3]): 0
- Wild oats plant response rating (wild oat; [4]): 0
- Wild oats plant response rating (wild oat; [5]): 3
- Plant response rating, Wild oats (wild oat; [7]): 0
- Wild oats plant response rating (wild oat; [8]): 0
- Cocklebur plant response rating (cocklebur; [1]): 0
- Cocklebur plant response rating (cocklebur; [2]): 0
- Cocklebur plant response rating (0 to 10 scale) (cocklebur; [3]): 0
- Cocklebur plant response rating (cocklebur; [4]): 0
- Cocklebur plant response rating (cocklebur; [5]): 0
- Cocklebur plant response rating (cocklebur; [6]): 0
- Plant response rating, Cocklebur (cocklebur; [7]): 0
- Cocklebur plant response rating (cocklebur; [8]): 0
- Nutsedge plant response rating (purple nutsedge; [1]): 0
- Nutsedge plant response rating (purple nutsedge; [2]): 0
- Nutsedge plant response rating (0 to 10 scale) (purple nutsedge; [3]): 0
- Nutsedge plant response rating (purple nutsedge; [4]): 0
- Nutsedge plant response rating (purple nutsedge; [5]): 0
- Nutsedge plant response rating (purple nutsedge; [6]): 0
- Plant response rating, Nutsedge (purple nutsedge; [7]): 0
- Nutsedge plant response rating (purple nutsedge; [8]): 0
- Giant foxtail plant response rating (giant foxtail; [1]): 0
- Giant foxtail plant response rating (giant foxtail; [2]): 4
- Giant foxtail plant response rating (0 to 10 scale) (giant foxtail; [3]): 4
- Giant foxtail plant response rating (giant foxtail; [4]): 8
- Giant foxtail plant response rating (giant foxtail; [5]): 9
- Giant foxtail plant response rating (giant foxtail; [6]): 0
- Plant response rating, Giant foxtail (giant foxtail; [7]): 0
- Giant foxtail plant response rating (giant foxtail; [8]): 2
- Crabgrass plant response rating (crabgrass; [1]): 0
- Crabgrass plant response rating (crabgrass; [2]): 0
- Crabgrass plant response rating (0 to 10 scale) (crabgrass; [3]): 2
- Crabgrass plant response rating (crabgrass; [4]): 8
- Crabgrass plant response rating (crabgrass; [5]): 9
- Crabgrass plant response rating (crabgrass; [6]): 0
- Plant response rating, Crabgrass (crabgrass; [7]): 0
- Crabgrass plant response rating (crabgrass; [8]): 2
- Wheat plant response rating (wheat; [2]): 0
- Wheat plant response rating (0 to 10 scale) (wheat; [3]): 0
- Wheat plant response rating (wheat; [4]): 0
- Wheat plant response rating (wheat; [5]): 0
- Plant response rating, Wheat (wheat; [7]): 0
- Wheat plant response rating (wheat; [8]): 2
- Bedstraw plant response rating (bedstraw; [1]): 0
- Bedstraw plant response rating (bedstraw; [2]): 0
- Bedstraw plant response rating (0 to 10 scale) (bedstraw; [3]): 0
- Bedstraw plant response rating (bedstraw; [4]): 0
- Bedstraw plant response rating (bedstraw; [5]): 0
- Bedstraw plant response rating (bedstraw; [6]): 0
- Plant response rating, Bedstraw (bedstraw; [7]): 0
- Bedstraw plant response rating (bedstraw; [8]): 0
- Sugarbeets plant response rating (sugar beet; [1]): 0
- Sugarbeets plant response rating (sugar beet; [2]): 0
- Sugarbeets plant response rating (0 to 10 scale) (sugar beet; [3]): 0
- Sugarbeets plant response rating (sugar beet; [4]): 0
- Sugarbeets plant response rating (sugar beet; [5]): 0
- Sugarbeets plant response rating (sugar beet; [6]): 0
- Plant response rating, Sugarbeets (sugar beet; [7]): 0
- Sugarbeets plant response rating (sugar beet; [8]): 0
- Soybean plant response rating (soybean; [1]): 1
- Soybean plant response rating (soybean; [2]): 0
- Soybean plant response rating (0 to 10 scale) (soybean; [3]): 0
- Soybean plant response rating (soybean; [4]): 0
- Soybean plant response rating (soybean; [5]): 0
- Soybean plant response rating (soybean; [6]): 1
- Plant response rating, Soybean (soybean; [7]): 2
- Soybean plant response rating (soybean; [8]): 2
- Rape plant response rating (rape; [1]): 0
- Rape plant response rating (rape; [2]): 0
- Rape plant response rating (0 to 10 scale) (rape; [3]): 0
- Rape plant response rating (rape; [4]): 0
- Rape plant response rating (rape; [5]): 0
- Rape plant response rating (rape; [6]): 0
- Plant response rating, Rape (rape; [7]): 0
- Rape plant response rating (rape; [8]): 0
- Velvetleaf plant response rating (velvetleaf; [2]): 0
- Velvetleaf plant response rating (0 to 10 scale) (velvetleaf; [3]): 0
- Velvetleaf plant response rating (velvetleaf; [4]): 0
- Velvetleaf plant response rating (velvetleaf; [5]): 0
- Plant response rating, Velvetleaf (velvetleaf; [7]): 0
- Velvetleaf plant response rating (velvetleaf; [8]): 0
- Morningglory plant response rating (morningglory; [1]): 2
- Morningglory plant response rating (morningglory; [2]): 0
- Morningglory plant response rating (0 to 10 scale) (morningglory; [3]): 0
- Morningglory plant response rating (morningglory; [4]): 0
- Morningglory plant response rating (morningglory; [5]): 0
- Morningglory plant response rating (morningglory; [6]): 2
- Plant response rating, Morningglory (morningglory; [7]): 2
- Morningglory plant response rating (morningglory; [8]): 3
- Corn plant response rating (corn; [1]): 0
- Corn plant response rating (corn; [2]): 0
- Corn plant response rating (0 to 10 scale) (corn; [3]): 0
- Corn plant response rating (corn; [4]): 0
- Corn plant response rating (corn; [5]): 0
- Corn plant response rating (corn; [6]): 0
- Plant response rating, Corn (corn; [7]): 0
- Corn plant response rating (corn; [8]): 0
